Results reported in patent US12692262B2, “Substituted ureas as orexin receptor agonists” (Merck Sharp & Dohme LLC, priority 2020, dated 2026).
pEC50: −log10 of the molar value.

Target: T1, human OX2R (Homo sapiens, UniProt O43614)
T1 construct: expressed in transfected cells; host or cells: CHO (Chinese hamster ovary) cells grown under G418 selection
T1 sequence (O43614 1-444): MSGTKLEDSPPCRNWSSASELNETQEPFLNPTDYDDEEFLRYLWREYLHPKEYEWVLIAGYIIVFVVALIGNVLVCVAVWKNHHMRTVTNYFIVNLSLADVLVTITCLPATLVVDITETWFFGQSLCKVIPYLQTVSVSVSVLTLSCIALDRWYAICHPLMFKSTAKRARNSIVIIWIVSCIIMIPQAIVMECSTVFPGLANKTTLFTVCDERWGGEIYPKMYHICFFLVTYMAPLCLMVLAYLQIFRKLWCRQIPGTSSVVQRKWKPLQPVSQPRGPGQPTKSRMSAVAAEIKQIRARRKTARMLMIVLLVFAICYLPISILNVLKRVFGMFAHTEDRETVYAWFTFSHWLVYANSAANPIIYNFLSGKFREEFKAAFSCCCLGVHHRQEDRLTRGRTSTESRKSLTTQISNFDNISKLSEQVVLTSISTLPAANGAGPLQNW
Assay: IPOne (IP-1 accumulation) assay in CHO cells expressing human OX2R
Format: cell-based
Conditions: for pEC50: CHO cells expressing human OX2R, IP-One assay, 2 h incubation, four parameter logistic fit, read-out: OX2R Potency, EC50; for % of maximum agonist effect (relative to Orexin A): percent effect vs mean max effect of a reference compound at 1 uM (100% activity vs Orexin A), human OX2R
Method in brief: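 Agonist EC50 values come from the inflection point of four-parameter logistic curves. Read-out is IP-1 accumulation detected with lysis buffer plus D2 and AB-cryptate reagents (HTRF), in CHO cells engineered to express human OX2R.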

Row | pEC50 | % of maximum agonist effect (relative to Orexin A) [%] | SMILES
1 | 7.98 | 96.6 | CC[C@H](CCC(F)(F)F)NC(=O)N(CC)[C@H](C)c1ccc(OC)c(-c2cc(C)c3nccn3c2)c1 [Example 8-3, 1-ethyl-1-((R)-1-(4-methoxy-3-(8-methylimidazo[1,2-a]pyridin-6-yl)phenyl)ethyl)-3-((R)-6,6,6-trifluorohexan-3-yl)urea]
2 | 7.09 | 98.5 | CC[C@H](CCC(F)(F)F)NC(=O)N(CC)[C@H](C)c1cc(-c2ccc3nccn3c2)c(OC)cc1F [Example 11-2, 1-ethyl-1-((R)-1-(2-fluoro-5-(imidazo[1,2-a]pyridin-6-yl)-4-methoxyphenyl)ethyl)-3-((R)-6,6,6-trifluorohexan-3-yl)urea]
3 | 8.38 | 99.7 | CCN(C(=O)NC1CC(C(F)(F)F)C1)[C@@H](c1cc(-c2cn3ccnc3c(OC)n2)c(OC)cn1)C(F)(F)F (stereo partly drawn) [Example 2-38, (S)-1-ethyl-1-(2,2,2-trifluoro-1-(5-methoxy-4-(8-methoxyimidazo[1,2-a]pyrazin-6-yl)pyridin-2-yl)ethyl)-3-(3-(trifluoromethyl)cyclobutyl)urea]
4 | 8.07 | 100.5 | CCN(C(=O)NC(C)c1nc(C)no1)[C@@H](c1cc(-c2cn3ccnc3c(OC)n2)c(OC)cn1)C(F)(F)F (stereo partly drawn) [Example 2-26, 1-ethyl-3-(1-(3-methyl-1,2,4-oxadiazol-5-yl)ethyl)-1-((S)-2,2,2-trifluoro-1-(5-methoxy-4-(8-methoxyimidazo[1,2-a]pyrazin-6-yl)pyridin-2-yl)ethyl)urea]
5 | 8.57 | 101.1 | CCN(C(=O)NC(CC(C)=O)C(F)(F)F)[C@@H](c1cc(-c2cn3ccnc3c(OC)n2)c(OC)cn1)C(F)(F)F (stereo partly drawn) [Example 2-34, 1-ethyl-1-((S)-2,2,2-trifluoro-1-(5-methoxy-4-(8-methoxyimidazo[1,2-a]pyrazin-6-yl)pyridin-2-yl)ethyl)-3-(1,1,1-trifluoro-4-oxopentan-2-yl)urea]
6 | 8.28 | 97.2 | CCN(C(=O)NC(c1cccc(F)c1)C(F)(F)F)[C@@H](c1cccc(-c2cn3ccnc3c(OC)n2)c1)C(F)(F)F (stereo partly drawn) [Example 2-66, 1-ethyl-1-((S)-2,2,2-trifluoro-1-(3-(8-methoxyimidazo[1,2-a]pyrazin-6-yl)phenyl)ethyl)-3-(2,2,2-trifluoro-1-(3-fluorophenyl)ethyl)urea]
7 | 9.10 | 96.5 | CC[C@H](CCC(F)(F)F)NC(=O)N(CC)Cc1ccc(OC)c(-c2cc(OC)c3nccn3c2)c1 [Example 1-8, (R)-1-ethyl-1-(4-methoxy-3-(8-methoxyimidazo[1,2-a]pyridin-6-yl)benzyl)-3-(6,6,6-trifluorohexan-3-yl)urea]
8 | 8.43 | 99.1 | CCN(C(=O)NC(CC(C)C(F)(F)F)C(F)(F)F)[C@H](C)c1cccc(-c2cn3ccnc3c(OC)n2)c1 (stereo partly drawn) [Example 2-2, 1-ethyl-3-(1,1,1,5,5,5-hexafluoro-4-methylpentan-2-yl)-1-((R)-1-(3-(8-methoxyimidazo[1,2-a]pyrazin-6-yl)phenyl)ethyl)urea]
9 | 7.93 | 101.4 | CCN(C(=O)N[C@@H](CCC(F)(F)F)C(F)(F)F)C(C)c1ccnc(-c2cn3ccnc3c(OC)n2)c1 (stereo partly drawn) [Example 13-1, 1-ethyl-3-((S)-1,1,1,5,5,5-hexafluoropentan-2-yl)-1-(1-(2-(8-methoxyimidazo[1,2-a]pyrazin-6-yl)pyridin-4-yl)ethyl)urea]
10 | 6.88 | 101.7 | CCN(C(=O)N[C@@H](CCC(F)(F)F)C(F)(F)F)C(c1cc(-c2cc(OC)c3nccnc3c2)c(OC)cn1)C(F)(F)F (stereo partly drawn) [Example 10-13, 1-ethyl-3-((S)-1,1,1,5,5,5-hexafluoropentan-2-yl)-1-(2,2,2-trifluoro-1-(5-methoxy-4-(8-methoxyquinoxalin-6-yl)pyridin-2-yl)ethyl)urea]
11 | 7.53 | 96.8 | CC[C@H](CCC(F)(F)F)NC(=O)N(CC)[C@H](C)c1cccc(-c2cc(OC(F)F)c3nccn3c2)c1 [Example 7-1, 1-((R)-1-(3-(8-(difluoromethoxy)imidazo[1,2-a]pyridin-6-yl)phenyl)ethyl)-1-ethyl-3-((R)-6,6,6-trifluorohexan-3-yl)urea]
12 | 7.87 | 100.2 | CCN(C(=O)NC(CC(F)(F)F)C1CC1)C(c1cc(-c2cn3ccnc3c(OC)n2)c(OC)cn1)C(F)(F)F (centres unmarked) [Example 6-3, 3-(1-cyclopropyl-3,3,3-trifluoropropyl)-1-ethyl-1-(2,2,2-trifluoro-1-(5-methoxy-4-(8-methoxyimidazo[1,2-a]pyrazin-6-yl)pyridin-2-yl)ethyl)urea]
13 | 7.52 | 97.6 | CCN(C(=O)NCC(C)C(F)(F)F)[C@@H](c1cc(-c2cn3ccnc3c(OC)n2)c(OC)cn1)C(F)(F)F (stereo partly drawn) [Example 2-11, 1-ethyl-1-((S)-2,2,2-trifluoro-1-(5-methoxy-4-(8-methoxyimidazo[1,2-a]pyrazin-6-yl)pyridin-2-yl)ethyl)-3-(3,3,3-trifluoro-2-methylpropyl)urea]
14 | 7.75 | 101.0 | CCN(C(=O)NC(C1CCOCC1)C(F)(F)F)[C@@H](c1cc(-c2cn3cc(C)nc3c(OC)n2)c(OC)cn1)C(F)(F)F (stereo partly drawn) [Example 2-48, 1-ethyl-1-((S)-2,2,2-trifluoro-1-(5-methoxy-4-(8-methoxy-2-methylimidazo[1,2-a]pyrazin-6-yl)pyridin-2-yl)ethyl)-3-(2,2,2-trifluoro-1-(tetrahydro-2H-pyran-4-yl)ethyl)urea]
15 | 7.80 | 100.3 | CCN(C(=O)NC(CCCF)C1CC1)[C@@H](c1cc(-c2cn3cc(C)nc3c(OC)n2)c(OC)cn1)C(F)(F)F (stereo partly drawn) [Example 6-4, 3-(1-cyclopropyl-4-fluorobutyl)-1-ethyl-1-((S)-2,2,2-trifluoro-1-(5-methoxy-4-(8-methoxy-2-methylimidazo[1,2-a]pyrazin-6-yl)pyridin-2-yl)ethyl)urea]
16 | 7.19 | 97.4 | CC[C@H](CCC(F)(F)F)NC(=O)N(C(C)C)[C@H](C)c1cccc(-c2cn3ccnc3c(OC)n2)c1 [Example 2-60, 1-isopropyl-1-((R)-1-(3-(8-methoxyimidazo[1,2-a]pyrazin-6-yl)phenyl)ethyl)-3-((R)-6,6,6-trifluorohexan-3-yl)urea]
17 | 8.80 | 99.4 | CCN(C(=O)NC(CCC(C)=O)C(F)(F)F)[C@H](C)c1cccc(-c2cn3ccnc3c(OC)n2)c1 (stereo partly drawn) [Example 2-54, 1-ethyl-1-((R)-1-(3-(8-methoxyimidazo[1,2-a]pyrazin-6-yl)phenyl)ethyl)-3-(1,1,1-trifluoro-5-oxohexan-2-yl)urea]
18 | 7.53 | 100.4 | CCN(C(=O)N[C@@H](CCC(F)(F)F)C(F)(F)F)[C@@H](c1cc(-c2cc(OC)c3ncn(C)c3c2)c(OC)cn1)C(F)(F)F [Example 9-7, 1-ethyl-3-((S)-1,1,1,5,5,5-hexafluoropentan-2-yl)-1-((S)-2,2,2-trifluoro-1-(5-methoxy-4-(4-methoxy-1-methyl-1H-benzo[d]imidazol-6-yl)pyridin-2-yl)ethyl)urea]
19 | 7.15 | 101.5 | CCC(NC(=O)N(CC)[C@@H](c1cc(-c2cn3cc(C)nc3c(OC)n2)c(OC)cn1)C(F)(F)F)C1CC1C(F)(F)F (stereo partly drawn) [Example 6-6, 1-ethyl-1-((S)-2,2,2-trifluoro-1-(5-methoxy-4-(8-methoxy-2-methylimidazo[1,2-a]pyrazin-6-yl)pyridin-2-yl)ethyl)-3-(1-(2-(trifluoromethyl)cyclopropyl)propyl)urea]
20 | 6.47 | 99.7 | CC[C@H](CCC(F)(F)F)NC(=O)N(CC(F)F)C(c1cc(-c2cn3ncnc3c(OC)n2)c(OC)cn1)C(F)(F)F (stereo partly drawn) [Example 2-20, 1-(2,2-difluoroethyl)-1-(2,2,2-trifluoro-1-(5-methoxy-4-(8-methoxy-[1,2,4]triazolo[1,5-a]pyrazin-6-yl)pyridin-2-yl)ethyl)-3-((R)-6,6,6-trifluorohexan-3-yl)urea]
21 | 8.40 | 100.1 | C#CC(CCC(F)(F)F)NC(=O)N(CC)[C@H](C)c1cccc(-c2cn3ccnc3c(OC)n2)c1 (stereo partly drawn) [Example 2-65, 1-ethyl-1-((R)-1-(3-(8-methoxyimidazo[1,2-a]pyrazin-6-yl)phenyl)ethyl)-3-(6,6,6-trifluorohex-1-yn-3-yl)urea]
22 | 8.21 | 100.7 | CCN(C(=O)N[C@@H](CCC(F)(F)F)C(F)(F)F)[C@@H](c1cc(-c2nc(OC)c3nccn3c2C)c(OC)cn1)C(F)(F)F [Example 9-3, 1-ethyl-3-((S)-1,1,1,5,5,5-hexafluoropentan-2-yl)-1-((S)-2,2,2-trifluoro-1-(5-methoxy-4-(8-methoxy-5-methylimidazo[1,2-a]pyrazin-6-yl)pyridin-2-yl)ethyl)urea]
